# According to US11793816B2, “Methods for enhancing cytotoxic cancer therapy through inhibition of ATG4B” (Northwestern University, priority 2019, dated 2023):
# Tests used:
# [1] = system: LC3B puncta in GSC M83 and JK83 cells; test: LC3B immunofluorescence (puncta, autophagosomes); type: cell-based; settings: NSC in cells treated with AZD2014
# Description: (§1) FIG. 6. NSC enhanced the cytotoxicity of a mTORC1/2 inhibitor AZD2014 in GSCs. (A) GSC M83 and JK83 were exposed to DMSO control vs AZD2014 vs NSCs vs AZD2014 in combination with NSC for 72 hr. Cells were collected for immunoblot analysis using indicated antibodies. (B) Immunofluorescence analyses for LC3B puncta in GSC M83 and JK83 cells with indicated treatments. (C and D) GSC M83 and JK83 and/or neural progenitor cells (NPC) were treated as indicated in (A), cell viability was tested at 72 h after treatment (C), and cell apoptosis was measured by Annexin V FACS assay 48 h after treatment. Data are representative from three independent experiments with similar results.
# Immunofluorescent staining. GSCs were seeded onto LabTek CC2-treated tissue culture slides (Thermo Fisher) and cultured for 24 hours. Cells were then fixed with 4% formaldehyde (Fisher) for 15 min, and permeabilized with 0.1% Triton X-100, and then blocked with AquaBlock (East Coast Bio, North Berwick, Me.) for 60 minutes. The slides were incubated with indicated primary antibodies according to the manufacturer's instructions. After being washed for three times with PBS-T, cells were incubated with secondary antibody (Alexa 488 and 594, 1:200) and DAPI-containing mounting solution Vectashield (Vector Laboratories). Cells were analyzed on a Nikon inverted microscope Eclipse Ti-U equipped with a digital camera. […]
# [2] = system: GSC83 and GBM43 cells; test: Cell viability / proliferation after NSC, IR, TMZ alone or combined; type: cell-based; settings: NSC combined with IR or/and TMZ vs single treatments, 72 hours
# [3] = system: mTORC1 and mTORC2 activity in GSC M83 and JK83 cells; test: Immunoblot of mTORC1 and mTORC2 activity in GSCs; type: cell-based; settings: GSC83 and JK83 cells, 72 hr
# Description: (§2) FIG. 5. A mTORC1/2 inhibitor AZD2014 inhibited cell survival, mTORC1 and mTORC2 activities in GSCs and glioma cells. (A) GSC M83 and JK83 and glioma cells U87 were treated with indicated concentration of AZD2014 for 72 h, then cell viability was evaluated. (B) GSC M83 and JK83 were treated with the indicated concentration of AZD2014 for 1 hr, or with 2 μM AZD2014 for the specified time. Cells were collected for immunoblot analysis. β-actin was used as a loading control; Results are representative of 2 independent experiments. *P<0.05, **P<0.01, paired two-way Student's t-test. Data are representative from three independent experiments with similar results.
# as §1
# IB assays were performed as previously described (Huang et al., 2016b). Specific antibodies were used according to the manufacturer's instructions: LC3B (#3868S), pAKT (Ser473; 4060), pAKT(Thr308; 4056), AKT (4691), pS6(S235/236; 2211), S6 (2317), phosphorylated 4E-binding protein 1 (p4EBP1) (Thr37/46; 2855), 4EBP1 (9644), p-mTOR (Ser2448; 2971S), p-mTOR (Ser2481; 2974S), mTOR (2972S), pULK1(Ser317; 14202T), pULK1 (Ser757; 8054T), ULK1(6439), LAMP2 (49067S) were from Cell Signaling Technology. Anti-β-actin (SC-47778) and anti-SQSTM1/p62 (SC-28359) antibodies were from Santa Cruz Biotechnology. An anti-Ki-67 antibody (AB9260) was from EMD Millipore.
# mTOR kinases are crucial regulators of glioma cell growth, proliferation and survival (Akhavan et al., 2010). […] A strong inhibition was achieved by 1 μM with complete block of mTORC1/2 activities at 2 μM (FIG. 5B).
# Since autophagy activation is considered as a cytoprotective factor that contribute to tumor survival when challenged by therapies, it is proposed that block of autophagy activation by NSC would further enhanced the cytotoxicity of dual TORC1/2 inhibitor AZD2014.
# [4] = system: LC3B, p62/SQSTM-1 and LAMP2 in GSC M83 and JK83 cells; test: Immunoblot of autophagy markers (LC3B, p62, LAMP2) in GSCs treated with AZD2014 and NSC; type: cell-based; settings: NSC in the presence of AZD2014
# Description: as §2
# as §1, with “results. […]” for “results.”
# [5] = system: LC3B lipidation and p62/SQSTM1 in GSCs and GBM cells; test: Immunoblot of autophagy markers after NSC, IR, TMZ; type: cell-based; settings: NSC with IR or/and TMZ
# Description: (A) GBM stem-like cells, GSCTS576, and patient-derived xenograft cells, GBM44, were treated with NSC, IR or/and TMZ at the indicated concentrations and combinations for 72 hours. Thereafter, cells were analyzed for cellular viability. Data are shown as mean±SD, n=3 of biological replicates. #, Combination vs. TMZ, P<0.01; &, Combination vs. IR, P<0.01; *, Combination vs. NSC, P<0.01 (B) GSCTS576 and GBM44 cells were treated with NSC, IR or and TMZ with indicated concentration or does for 48 hours, stained with Annexin V/PI, and analyzed by flow cytometry; n=3 biological replicates. Data are shown as mean±SD. #, Combination vs. TMZ, P<0.01; &, Combination vs. IR, P<0.01; *, Combination vs. NSC, P<0.01. (C) TS576 GSCs and GBM44 with indicated treatments were collected and analyzed for levels of the indicated proteins. […]
# To determine the effect of combination treatment with NSC185058 and irradiation (IR) or/and TMZ, stem-like glioma cells (GSC83) and patient-derived xenograft GBM (GBM43) cells, were treated with NSC185058, TMZ, IR or the combination of two or three treatments and examined cellular proliferation modulation. […] Toward this end, we analyzed protein expression of autophagy marker protein LC3B and p62/SQSTM1, an established autophagy substrate, DNA damage indicator γH2AFX/γH2AX and apoptosis indicator cleaved CASP3/caspase-3 in both tested cell lines.
# [6] = system: intracranial PDX GBM39 tumor xenografts; test: Intracranial PDX GBM39 xenograft model (BLI, body weight, survival); settings: monotherapy
# Description: (A) Designs for Combination Therapy of Targeting Autophagy using NSC (150 mg/kg, Monday, Wednesday, and Friday), IR (2 Gy/day for 5 consecutive days), TMZ (100 mg/kg/day), RT+NSC, TMZ+NSC or RT+TMZ+NSC for PDX GBM39 model. (B) Body weight curves of different groups. Values represent the mean±SEM (n=8). *p<0.05, **p<0.01 compared to vehicle controls. (C) Relative changes in bioluminescent (BLI) signals of intracranial xenograft tumors with vehicle control or indicated treatment. n=8/group. *p<0.05, **p<0.01 compared to vehicle controls. Values represent the mean±SEM (n=8). *p<0.05, **p<0.01 compared to vehicle controls. (D) Representative bioluminescent images of mice-bearing intracranial xenografts with indicated treatments. NSC, IR, TMZ, and the indicated combinations. Treatments were started at day 7 post implantation. Mice were imaged after the last treatment. […] (E) Kaplan-Meier (left) and log-rank p value analyses (right) of mice bearing GSC 83 orthotopic xenografts with indicated treatments. […]
# Athymic (Ncr nu/nu) mice at 6-8 week age were obtained from Taconic Farms. […] When Bioluminescent imaging (BLI) was detected in all animal, which were randomized into different treatment groups. […] Mice were monitored every day until the onset of neurological symptoms due to tumor burden. The tumor growth was monitored using the bioluminescent imaging (BLI) station (Caliper Life Sciences).
smiles,measurement,setting,value
"S=C(Nc1ccccn1)c1ccccn1 [NSC185058, N-pyridin-2-yl-pyridine-2-carbothioamide]",autophagosomes number (LC3 B immunofluorescence),[1],markedly decreased
same,tumor cell proliferation,[2],more reduction in tumor cell proliferation cells than single treatments
same,mTOR signaling and ULK1 phosphorylation,[3],without affecting the mTOR signaling and ULK1 activity
same,"autophagy markers (LC3B conversion, p62 and LAMP2 degradation)",[4],attenuated autophagy induction
same,"sensitization to IR or/and TMZ (LC3B lipidation, p62)",[5],sensitized the tested cells to IR or/and TMZ by suppressing LC3B lipidation and increasing p62
same,"survival analysis (growth-suppressive effects, FIG. 4E)",[6],not IR or NSC single treatment resulted in growth-suppressive effects
